This passage reports TGI and GI50 results from PubChem BioAssay (NCI).

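Assay format: 96-well plates, 48-hour exposure. Here, GI50 denotes the concentration required for 50% inhibition of growth. TGI is the concentration that stops growth completely.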

Test systems include SK-OV-3 ovarian; PC-3 prostate; SF-268 CNS; MOLT-4 leukemia; SNB-19 CNS; SW-620 colon; NCI-H23 lung; MALME-3M melanoma; OVCAR-3 ovarian; SN12C renal.
What all share (test): DTP human tumour cell line panel, 48 h

On to `CCN(CC)C1Oc2cc3c(cc2C(c2cccc(OC)c2OC)C1C)OCO3` (stereo not given), for which the TGI (commonly the concentration at which net growth stops) in the test with SK-OV-3 ovarian was 58.5 µM; with PC-3 prostate it was 24.4 µM; in the test with SF-268 CNS it was more than 100 µM; in the test on MOLT-4 leukemia, 23.7 µM; in the test on SNB-19 CNS, 71.4 µM; in the test on SW-620 colon, 77 µM. The TGI in the test with NCI-H23 lung was 35.7 µM; with MALME-3M melanoma, 33.5 µM; in the test on OVCAR-3 ovarian it was 9.97 µM; with SN12C renal, more than 100 µM.
For `Nc1nc2c(C(=O)O)c3ccc([N+](=O)[O-])cc3c(=O)n2c2ccccc12`, the TGI in the test with SK-OV-3 ovarian is 74.1 µM; in the test on PC-3 prostate it was 74.9 µM; with SF-268 CNS, 94.8 µM; in the test on MOLT-4 leukemia, more than 100 µM; with SNB-19 CNS, 89.6 µM; with SW-620 colon, more than 100 µM. The TGI with NCI-H23 lung was 64.9 µM; with MALME-3M melanoma, more than 100 µM; in the test on OVCAR-3 ovarian it was 57 µM; in the test on SN12C renal, 58.1 µM.
`COc1cc(Nc2nc3cc(C(F)(F)F)ccc3n3cccc23)cc(OC)c1OC`: the TGI in the test on SK-OV-3 ovarian, in the test with PC-3 prostate, in the test on SF-268 CNS, with MOLT-4 leukemia, in the test on SNB-19 CNS and with SW-620 colon was more than 100 µM each time. Also, the TGI with NCI-H23 lung, in the test with MALME-3M melanoma, in the test on OVCAR-3 ovarian and with SN12C renal was more than 100 µM in each case.
With `COC(=O)Cc1c(-c2c(CC(=O)OC)c3ccccc3n2C2OC(COC(C)=O)C(OC(C)=O)C(OC(C)=O)C2OC(C)=O)[nH]c2ccccc12` (stereo not given), the TGI with SK-OV-3 ovarian, in the test with PC-3 prostate, in the test on SF-268 CNS, in the test on MOLT-4 leukemia, in the test with SNB-19 CNS and in the test on SW-620 colon was more than 100 µM each time. Besides, the TGI in the test on NCI-H23 lung, in the test on MALME-3M melanoma, in the test on OVCAR-3 ovarian and in the test with SN12C renal was more than 100 µM throughout.
Consider `CC(C)/C(Cl)=N/OC(=O)Nc1ccc(Cl)c(Cl)c1`, for which the TGI with SK-OV-3 ovarian was 30.7 µM; in the test with PC-3 prostate, 33.1 µM; in the test with SF-268 CNS, 34.8 µM; in the test on MOLT-4 leukemia it was 6.2 µM; in the test with SNB-19 CNS, 50.4 µM; in the test on SW-620 colon, 4.35 µM. Moreover, the TGI is 29.5 µM with NCI-H23 lung, 4.33 µM in the test with MALME-3M melanoma, 6.4 µM in the test on OVCAR-3 ovarian and 3.42 µM in the test on SN12C renal.
For the compound `CCOC(=O)C1CCCCN1C(=O)Cc1c[nH]c2ccccc12` (stereo not given), the TGI in the test with SK-OV-3 ovarian, with PC-3 prostate, in the test with SF-268 CNS, with MOLT-4 leukemia, in the test with SNB-19 CNS and in the test on SW-620 colon was more than 100 µM throughout. The TGI in the test with NCI-H23 lung, in the test with MALME-3M melanoma, in the test on OVCAR-3 ovarian and in the test with SN12C renal was more than 100 µM throughout.
As to `CCC1C(c2ccccc2O)c2cc3c(cc2OC1N1CCOCC1)OCO3` (stereo not given), the TGI worked out at 39.6 µM with SK-OV-3 ovarian; 26 µM with PC-3 prostate; 31.8 µM in the test with SF-268 CNS; 27 µM with MOLT-4 leukemia; 28.6 µM in the test on SNB-19 CNS; 33 µM in the test on SW-620 colon. In addition, the TGI with NCI-H23 lung was determined as 34.5 µM; in the test with MALME-3M melanoma, 26 µM; in the test on OVCAR-3 ovarian, 25.4 µM; with SN12C renal, 29.4 µM.
As to `COc1ccc(Nc2ccc([N+](=O)[O-])cc2[N+](=O)[O-])cc1CN(CCCl)CCCl`, the GI50 (as a rule, the concentration giving 50% growth inhibition) is 3.85 µM in the test on SK-OV-3 ovarian; 2.04 µM in the test with PC-3 prostate; 2.44 µM in the test with SF-268 CNS; 0.39 µM with MOLT-4 leukemia; 3.22 µM in the test on SNB-19 CNS; 2.11 µM with SW-620 colon. For the same compound, the GI50 in the test on NCI-H23 lung is 2.04 µM; with MALME-3M melanoma it was 1.96 µM; in the test with OVCAR-3 ovarian, 2.36 µM; in the test on SN12C renal, 2.6 µM. Also, the TGI is more than 100 µM in the test with SK-OV-3 ovarian; 9.59 µM in the test with PC-3 prostate; 16.8 µM in the test with SF-268 CNS; 9.94 µM in the test with MOLT-4 leukemia; 25 µM in the test on SNB-19 CNS; 13.4 µM in the test on SW-620 colon. The TGI in the test on NCI-H23 lung is 5.77 µM; in the test on MALME-3M melanoma, 4.71 µM; with OVCAR-3 ovarian it was 7.85 µM; in the test on SN12C renal it was more than 100 µM.
Consider `c1ccc(CC2COC(c3cccs3)=N2)cc1` (stereo not given), for which the total growth inhibition concentration (TGI) in the test with SK-OV-3 ovarian, in the test on PC-3 prostate, in the test with SF-268 CNS, in the test on MOLT-4 leukemia, in the test on SNB-19 CNS and with SW-620 colon was more than 100 µM in each case. Besides, the TGI in the test on NCI-H23 lung, in the test on MALME-3M melanoma, in the test on OVCAR-3 ovarian and with SN12C renal was more than 100 µM in each case.
Turning to `CCN(CC)c1nnc(CCCCCCCCc2nnc(N(CC)CC)o2)o1`, the TGI in the test on SK-OV-3 ovarian, in the test on PC-3 prostate, in the test with SF-268 CNS, in the test with MOLT-4 leukemia, in the test with SNB-19 CNS and with SW-620 colon was more than 100 µM in each case. Further, the total growth inhibition concentration (TGI) with NCI-H23 lung, in the test on MALME-3M melanoma, with OVCAR-3 ovarian and with SN12C renal was more than 100 µM throughout.
Turning to `Nc1ccc(Nc2cc(=O)[nH]c(=O)[nH]2)cc1Cl`, the TGI in the test with SK-OV-3 ovarian, in the test on PC-3 prostate, in the test on SF-268 CNS, in the test with MOLT-4 leukemia, in the test on SNB-19 CNS and with SW-620 colon was more than 100 µM in each case. In addition, the TGI in the test on NCI-H23 lung, with MALME-3M melanoma, with OVCAR-3 ovarian and with SN12C renal was more than 100 µM in each case.
Turning to `O=[N+]([O-])c1ccc(C(O)(C#CCN2CCCC2)c2ccccc2)cc1` (stereo not given), the TGI was more than 100 µM in the test with SK-OV-3 ovarian; more than 100 µM with PC-3 prostate; more than 100 µM in the test on SF-268 CNS; 64.4 µM in the test on MOLT-4 leukemia; more than 100 µM in the test on SNB-19 CNS; more than 100 µM with SW-620 colon. For the same compound, the TGI is more than 100 µM in the test with NCI-H23 lung, 30.4 µM in the test on MALME-3M melanoma, more than 100 µM in the test with OVCAR-3 ovarian and more than 100 µM with SN12C renal.
